Test results as given in US20250283037A1, “METHODS FOR STIMULATING AND TRANSDUCING T CELLS” (Juno Therapeutics GmbH, priority 2021, published 2025).

What was measured:
mTOR = assay: Intracellular S6 phosphorylation in engineered T cells; format: cell-based, human; details: 1 μM (also printed 1 mM) during production; live CD8+ T cells
Procedure: CD4+ and CD8+ T cells were isolated by immunoaffinity-based enrichment from leukapheresis samples from human donor subjects. […] The T cells cultured with our without Compound 63 were incubated overnight (approximately 24 hr) at 37° C., and were then transduced in serum-free culture media with our without Compound 63 ([…]) with a lentiviral vector encoding an anti-CD19 CAR. […] Following transduction, the cells were incubated in serum free media without recombinant cytokines (basal media) and with or without Compound 63 (1 mM) and allowed to incubate at about 37.0° C. in an incubator for up to 96 hours after initiation of the stimulation with the anti-CD3/anti-CD28 oligomeric stimulatory reagent (until day 5 of the process). […] Following incubation CD4+ and CD8+ T cells from each donor were harvested, formulated, and cryofrozen. The cryofrozen engineered CD4+ and CD8+ T cells were thawed, and T cells were assessed for intracellular S6 phosphorylation, a ribosomal protein and marker of mTOR inhibition, and co-stained for surface expression of CD4 or CD8 and for CCR7 and CD45RA as markers of memory subsets. pS6 expression in live CD8+ T cells by memory subsets was shown by the expression of CCR7 and CD45RA as shown in FIG. 16A.

CD4+ and CD8+ T cells [1] = assay: Intracellular cytokines after PMA/Ionomycin and Golgi inhibitor; format: cell-based, human; details: PMA/Ionomycin stimulation; engineered CD8+ and CD4+ T cells
Procedure: (§1) CD4+ and CD8+ T cells were isolated by immunoaffinity-based enrichment from leukapheresis samples from human donor subjects. At day 1, isolated CD4+ and CD8+ T cells were mixed 1:1 and stimulated with an anti-CD3/anti-CD28 oligomeric stimulatory reagent generated as described in Example 1 in serum-free media supplemented with recombinant IL-2 (100 IU/mL), recombinant IL-7 (600 IU/mL), and recombinant IL-15 (100 IU/mL) with or without 1 μM of 2-(3-hydroxyphenyl)-9-(2-isopropylphenyl)-8-oxo-8,9-dihydro-7H-purine-6-carboxamide (Compound 63). The T cells cultured with our without Compound 63 were incubated overnight (approximately 24 hr) at 37° C., and were then transduced in serum-free culture media with our without Compound 63 ([…]) with a lentiviral vector encoding an anti-CD19 CAR. The CAR contained an scFv antigen-binding domain specific for CD19 (derived from FMC63), a CD28 transmembrane region, a 4-1BB costimulatory signaling region, and a CD3-zeta derived intracellular signaling domain. Following transduction, the cells were incubated in serum free media without recombinant cytokines (basal media) and with or without Compound 63 (1 mM) and allowed to incubate at about 37.0° C. in an incubator for up to 96 hours after initiation of the stimulation with the anti-CD3/anti-CD28 oligomeric stimulatory reagent (until day 5 of the process). […]

CAR-T cells = assay: Intracellular caspase expression in thawed CAR-T cells; format: cell-based, human; details: vs cells not incubated with compound
Procedure: as §1

[2] = system: CD8+ T cells and CD4+ T cells; assay: CD27/CCR7 phenotypic subset profile by flow cytometry; format: cell-based, human
Procedure: as §1

anti-CD19 CAR T cells = assay: Long-term stimulation with anti-idiotype antibody beads, expansion and survival; format: cell-based, human; details: 12 days, anti-ID antibody beads
Procedure: as §1, with “domain.” for “domain. Following transduction, the cells were incubated in serum free media without recombinant cytokines (basal media) and with or without Compound 63 (1 mM) and allowed to incubate at about 37.0° C. in an incubator for up to 96 hours after initiation of the stimulation with the anti-CD3/anti-CD28 oligomeric stimulatory reagent (until day 5 of the process).”
To further assess the functional activity of the cells, the generated T cell compositions were stimulated long-term over 12 days with beads conjugated with an anti-idiotype (ID) antibody against the anti-CD19 CAR, and expansion and survival of the cells were monitored (FIG. 17F, left panel) and total expansion metric calculated by area under the growth curve (FIG. 17F, right panel, AUC).

CD4+ and CD8+ T cells [3] = assay: Viability and live cell count of engineered T cell composition; format: cell-based, human; details: with vs without compound during production
[4] = biological target: T1, mutein streptavidin designated Strep-tactin® (e.g. containing the sequence set forth in SEQ ID NO: 4) (Streptomyces avidinii, UniProt P22629, E68V/S69T/V71R); details: general statement in the description, no experiment described; read-out: binding affinity KD for Strep-tactin®; cited from earlier work
T1 construct: N-terminal methionine in place of Ala13 (N)
T1 sequence (P22629 other isoform, or with tags, fused parts or gaps E68V/S69T/V71R): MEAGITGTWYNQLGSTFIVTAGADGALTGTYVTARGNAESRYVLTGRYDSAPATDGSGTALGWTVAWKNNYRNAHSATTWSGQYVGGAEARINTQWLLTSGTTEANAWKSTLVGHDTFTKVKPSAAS

Compound | pS6 mean fluorescence intensity of memory T cell subsets (Temra, Tem, Tcm) (mTOR) | level of intracellular cytokines IL2, IFNg, or TNF (CD4+ and CD8+ T cells [1]) | intracellular caspase expression (CAR-T cells) | phenotypic subset profile by CD27 and/or CCR7 expression [2] | function (expansion, AUC) following long-term CAR-specific stimulation (anti-CD19 CAR T cells) | percentage of viable cells over time (CD4+ and CD8+ T cells [3]) | total number of viable cells over time (CD4+ and CD8+ T cells [3]) | Kd [4]
CC(C)c1ccccc1-n1c(=O)[nH]c2c(C(N)=O)nc(-c3cccc(O)c3)nc21 [Compound 63, 2-(3-hydroxyphenyl)-9-(2-isopropylphenyl)-8-oxo-8,9-dihydro-7H-purine-6-carboxamide] | decreased | substantially improved | less | did not substantially alter | improved function | no significant effect | no significant effect | 
WSHPQFEK [Strep-tag® II] |  |  |  |  |  |  |  | ~1000 nM
